The Kd is the free concentration of one partner at which half of the binding sites on the other are occupied at equilibrium, for simple one-to-one binding. The low end stands for higher affinity, the high end for lower affinity.

The target in the assay is T1, MshE (VC0405) (Vibrio cholerae, UniProt Q9KUV7).
T1 construct: gene VC_0405
The assay can be described thus: biochemical.

T1 sequence (Q9KUV7 1-575): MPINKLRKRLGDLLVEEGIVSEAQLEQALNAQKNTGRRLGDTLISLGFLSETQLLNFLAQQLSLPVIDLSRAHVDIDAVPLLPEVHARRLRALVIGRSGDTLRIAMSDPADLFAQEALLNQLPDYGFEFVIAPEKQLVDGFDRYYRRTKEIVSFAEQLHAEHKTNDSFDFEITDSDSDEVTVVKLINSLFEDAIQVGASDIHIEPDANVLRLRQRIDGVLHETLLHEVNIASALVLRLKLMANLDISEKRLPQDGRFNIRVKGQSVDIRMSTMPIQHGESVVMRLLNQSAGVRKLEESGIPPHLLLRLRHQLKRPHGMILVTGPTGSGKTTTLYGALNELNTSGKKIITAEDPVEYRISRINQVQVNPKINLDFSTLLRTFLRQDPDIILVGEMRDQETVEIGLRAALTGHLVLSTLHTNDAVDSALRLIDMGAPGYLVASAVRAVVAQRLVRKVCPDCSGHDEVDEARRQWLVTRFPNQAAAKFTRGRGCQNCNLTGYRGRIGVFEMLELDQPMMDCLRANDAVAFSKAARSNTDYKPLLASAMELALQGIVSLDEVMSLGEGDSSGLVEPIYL

`Nc1nc2c(ncn2[C@@H]2O[C@@H]3CO[P@](=O)(O)O[C@H]4[C@@H](O)[C@H](n5cnc6c(=O)[nH]c(N)nc65)O[C@@H]4CO[P@](=O)(O)O[C@H]3[C@H]2O)c(=O)[nH]1` [c-di-GMP] displayed a Kd of 1900 ± 400 nM.

These data come from article PMC4624772 (PLoS Pathogens, 2015).
